Source: patent publication US20110045101A1, “FUNGICIDAL SUBSTITUTED AZOLES” (E.I. Du Pont De Nemours and Company, priority 2009, published 2011)
Marks after values point to notes of the source that are not given here.

Key:
Assay type in all cases: in vivo
Details in all cases: 100 = 100% disease control
Botrytis cinerea = assay: Test C: tomato Botrytis on tomato seedlings, sprayed the day before inoculation, visual disease rating
Summary of the method: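 Tomato seedlings were sprayed until run-off with test suspensions in acetone/water (50/50) carrying 250 ppm polyhydric alcohol ester surfactant. Standard dose was 200 ppm, with 40 ppm for marked entries.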

[1] = system: Puccinia recondita f. sp. tritici; assay: Test I: wheat leaf rust on wheat seedlings, sprayed the day before inoculation, visual disease rating
Summary of the method: (§1)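 200 ppm run-off spray (500 g/ha equivalent); * = 40 ppm. Vehicle: acetone/water 50/50, 250 ppm Trem® 014.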

[2] = system: Puccinia recondita f. sp. tritici; assay: Test H: wheat leaf rust, test suspension sprayed after inoculation of wheat seedlings, visual disease rating
Summary of the method: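 Wheat seedlings inoculated with P. recondita spores, held 24 h saturated at 20 °C, then 2 days in growth chamber at 20 °C; compound suspension (acetone/water with Trem 014) sprayed to run-off afterwards. Rated visually; 200 ppm (≈500 g/ha) unless marked *, which denotes 40 ppm.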

Septoria tritici = assay: Test G: wheat leaf blotch on wheat seedlings, sprayed the day before inoculation, visual disease rating
Summary of the method: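 Spray to run-off, 200 ppm (≈500 g/ha; starred = 40 ppm), acetone/water 50/50 + 250 ppm Trem® 014. Spore inoculation +1 d. 24° C saturated 48 h → 20° C 19 d. Visual rating.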

[3] = system: Erysiphe graminis f. sp. tritici; assay: Test J: wheat powdery mildew on wheat seedlings, sprayed the day before inoculation, visual disease rating
Summary of the method: as §1

Alternaria solani = assay: Test D: tomato early blight, sprayed the day before inoculation, visual disease rating
Summary of the method: as §1

Septoria nodorum = assay: Test F: wheat glume blotch on wheat seedlings, sprayed the day before inoculation, visual disease rating
Summary of the method: as §1

[4] = 200 ppm, 0 = no control relative to controls
[5] = 40 ppm (marked *), 0 = no control

| SMILES | Test C disease control rating (Botrytis cinerea; [4]) [%] | Test I disease control rating [1, 4] [%] | Test H disease control rating [2, 4] [%] | Test G disease control rating (Septoria tritici; [4]) [%] | Test J disease control rating [3, 4] [%] | Test D disease control rating (Alternaria solani; [4]) [%] | Test F disease control rating (Septoria nodorum; [4]) [%] | also measured |
| --- | --- | --- | --- | --- | --- | --- | --- | --- |
| CCOc1ccc(F)c(-c2c(Cl)nc(Br)n2-c2cccc(F)c2)c1F [compound 663] | 100 | 99 | 54 | 99 | 100 | 99 | 99 |  |
| CCOc1cc(F)c(-c2c(Cl)ncn2-c2ccc(C)cc2)c(F)c1 [compound 723] | 100 | 68 | 66 | 97 | 95 | 99 | 0 |  |
| Cc1ncn(-c2ccc(Cl)c(F)c2)c1-c1ccccc1F [compound 318] | 100 | 9 | 0 | 91 | 87 | 16 | 0 |  |
| N#Cc1ccc(F)c(-c2c(Cl)nc(Cl)n2-c2ccc(Cl)nc2)c1F [compound 691] |  |  |  |  |  |  |  | Test C disease control rating (Botrytis cinerea; 40 ppm (marked *)): 99* %; Test I disease control rating ([1]; 40 ppm (marked *)): 82* %; Test H disease control rating ([2]; 40 ppm (marked *)): 39* %; Test G disease control rating (Septoria tritici; 40 ppm (marked *)): 95* %; Test J disease control rating ([3]; 40 ppm (marked *)): 64* %; Test D disease control rating (Alternaria solani; 40 ppm (marked *)): 99* %; Test F disease control rating (Septoria nodorum; 40 ppm (marked *)): 51* % |
| COC(=O)Cc1nc(Br)c(-c2c(F)cccc2F)n1-c1ccc(Cl)cc1 [Compound 544, methyl 4-bromo-1-(4-chlorophenyl)-5-(2,6-difluorophenyl)-1H-imidazole-2-acetate] |  |  |  |  |  |  |  | pest or weed control at 200 ppm (Botrytis cinerea; Botrytis cinerea, 120 h, 200 ppm, 0 = no control relative to controls): 84%; pest or weed control at 200 ppm ([1]; Puccinia recondita, 168 h, 200 ppm, 0 = no control relative to controls): 91%; pest or weed control at 200 ppm ([2]; Puccinia recondita, 96 h, 200 ppm, 0 = no control relative to controls): 9%; pest or weed control at 200 ppm (Septoria tritici; Zymoseptoria tritici, 504 h, 200 ppm, 0 = no control relative to controls): 82%; pest or weed control at 200 ppm ([3]; Blumeria graminis, 168 h, 200 ppm, 0 = no control relative to controls): 86%; pest or weed control at 200 ppm (Alternaria solani; Alternaria solani, 168 h, 200 ppm, 0 = no control relative to controls): 98%; pest or weed control at 200 ppm (Septoria nodorum; Parastagonospora nodorum, 264 h, 200 ppm, 0 = no control relative to controls): 0% |
| COc1cc(F)c(-c2c(C)nc(Cl)n2-c2ccc(OC)nc2)c(F)c1 [compound 737] | 100 | 100 | 100 | 100 | 100 | 100 | 100 |  |
| COc1cc(F)c(-c2c(C)nc(Cl)n2-c2ccc(C(F)(F)F)nc2)c(F)c1 [compound 732] | 100 | 99 | 0 | 99 | 100 | 100 | 100 |  |
| COc1cc(F)c(-c2c(Cl)nc(Br)n2-c2ccc(OC)c(Cl)c2)c(F)c1 [compound 645] |  |  |  |  |  |  |  | Test C disease control rating (Botrytis cinerea; 40 ppm (marked *)): 99* %; Test I disease control rating ([1]; 40 ppm (marked *)): 83* %; Test H disease control rating ([2]; 40 ppm (marked *)): 0* %; Test G disease control rating (Septoria tritici; 40 ppm (marked *)): 95* %; Test J disease control rating ([3]; 40 ppm (marked *)): 35* %; Test D disease control rating (Alternaria solani; 40 ppm (marked *)): 17* %; Test F disease control rating (Septoria nodorum; 40 ppm (marked *)): 0* % |
| Cc1nc(Cl)n(-c2ccc(Cl)c(F)c2)c1-c1scnc1Cl [compound 380] | 100 | 99 | 0 | 91 | 99 | 91 | 0 |  |
| Cc1nc(Cl)c(-c2c(F)cc(F)cc2F)n1-c1ccc(OC(F)(F)F)cc1 [compound 612] | 99 | 8 | 0 | 96 | 100 | 100 | 60 |  |
| Cc1cccc(-c2c(C)ncn2-c2ccc(Cl)c(F)c2)n1 [compound 375] | 99 | 68 | 32 | 92 | 62 | 26 | 0 |  |
| Cn1c(-c2cnc(Cl)n2-c2ccc(Cl)cc2)nc(Cl)c1Br [compound 394] |  |  |  |  |  |  |  | Test C disease control rating (Botrytis cinerea; [5]): 3* %; Test I disease control rating [1, 5]: 45* %; Test H disease control rating [2, 5]: 0* %; Test G disease control rating (Septoria tritici; [5]): 28* %; Test J disease control rating [3, 5]: 0* %; Test D disease control rating (Alternaria solani; [5]): 0* %; Test F disease control rating (Septoria nodorum; [5]): 0* % |
| Cc1nn(C)c(Cc2ccc(Cl)cc2)c1-c1ccc(F)cc1Cl [compound 344] | 100 | 89 | 17 | 95 | 99 | 0 | 0 |  |
| Fc1cc(-n2c(Cl)nc(CCl)c2-c2ccnc(Br)c2)ccc1Cl [compound 353] | 0 | 41 | 0 | 8 | 0 | 0 | 0 |  |
| COc1ccc(F)c(-c2c(Cl)nc(C)n2-c2ccc(Cl)c(F)c2)c1F [compound 393] | 99 | 99 | 79 | 95 | 100 | 100 | 99 |  |
| COc1cc(F)c(-c2c(Cl)nc(C)n2Cc2ccc(Cl)cc2)c(F)c1 [compound 287] |  |  |  |  |  |  |  | Test C disease control rating (Botrytis cinerea; 200 ppm, 0 = no control): 100%; Test I disease control rating ([1]; 200 ppm, 0 = no control): 100%; Test H disease control rating ([2]; 200 ppm, 0 = no control): 17%; Test G disease control rating (Septoria tritici; 200 ppm, 0 = no control): 95%; Test J disease control rating ([3]; 200 ppm, 0 = no control): 99%; Test D disease control rating (Alternaria solani; 200 ppm, 0 = no control): 100%; Test F disease control rating (Septoria nodorum; 200 ppm, 0 = no control): 99% |
